Data reported in patent US20240270741A1 (Cogent Biosciences, Inc., priority 2023, published 2024).

These molecules were tested against FGFR2 (Homo sapiens, UniProt P21802) (assay: FGFR wild type enzyme assay (HTRF KinEASE-TK), FGFR2). Settings: Enz FGFR2 (nM), FGFR2 wild type enzyme assay.
FGFR2, sequence (P21802 399-821 limits assumed): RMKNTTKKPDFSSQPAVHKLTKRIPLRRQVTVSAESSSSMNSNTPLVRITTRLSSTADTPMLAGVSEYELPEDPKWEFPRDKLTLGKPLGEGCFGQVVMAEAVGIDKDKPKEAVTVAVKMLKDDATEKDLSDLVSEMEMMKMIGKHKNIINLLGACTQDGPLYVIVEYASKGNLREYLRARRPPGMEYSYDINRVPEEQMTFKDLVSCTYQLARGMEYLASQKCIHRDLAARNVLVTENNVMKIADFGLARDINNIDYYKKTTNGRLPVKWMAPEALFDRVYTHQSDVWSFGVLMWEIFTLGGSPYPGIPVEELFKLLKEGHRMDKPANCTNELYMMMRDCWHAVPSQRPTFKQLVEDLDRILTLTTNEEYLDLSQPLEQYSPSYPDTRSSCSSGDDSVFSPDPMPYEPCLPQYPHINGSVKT
Method: Activity against FGFR wild type and mutant enzymes were determined in biochemical assays using purified intracellular domains of the respective isoforms using HTRF KinEASE-TK assay technology from CisBio, now PerkinElmer. (Catalogue number 62TK0PEC). Briefly test compounds were tested in 11 point 1:3 serial dilutions, typical final concentration ranges from 10,000 nM to 0.17 nM. Test compounds were dissolved in DMSO and added to assay plates using acoustic transfer. Enzyme was pre-incubated with test compound for 30 minutes and the assay was initiated by addition of ATP and TK-peptide substrate. After 60 minutes at room temperature the reaction was quenched with detection reagent and incubated for an additional 60 minutes at room temperature. The plates were read using a multimode reader and the emission ratio of 665 nm to 615 nm was determined. This ratio was converted to percent of control (POC). [1-(high control-sample signal)/(high control-low control)]*100. Wells without compound were used to determine high control values and wells without enzyme were used to determine low control values. The POC values were fit using a four-parameter logistic model and the value where the fit curve was equal to 50 POC was reported as the IC50 using the Signals Vitro Vivo software package (PerkinElmer). Final assay conditions were: 50 mM HEPES pH7.5, 10 mM MgCl2, 1 mM EDTA, 0.01% Brij-35, 2 mM MnCl2, 1 mM DTT, and 0.5 uM TK-peptide.

| Compound | IC50 |
| --- | --- |
| CC(=O)N1CCC(n2ncc(-c3cc(Sc4nc(C)c(F)cc4F)c4c(C#N)cnn4c3)c2C)CC1 [Example 399, 6-(1-(1-acetylpiperidin-4-yl)-5-methyl-1H-pyrazol-4-yl)-4-((3,5-difluoro-6-methylpyridin-2-yl)thio)pyrazolo[1,5-a]pyridine-3-carbonitrile] | 2 nM |
| CC(=O)N1CCC(n2cc(-c3cc(Sc4ccccc4C#N)c4c(C#N)cnn4c3)c(C)n2)CC1 [Example 400, 6-(1-(1-acetylpiperidin-4-yl)-3-methyl-1H-pyrazol-4-yl)-4-((2-cyanophenyl)thio)pyrazolo [1,5-a]pyridine-3-carbonitrile] | 3 nM |
| CC(=O)N1CCC(n2cc(-c3cc(Sc4ncccc4F)c4c(C#N)cnn4c3)c(C)n2)CC1 [Example 401, 6-(1-(1-acetylpiperidin-4-yl)-3-methyl-1H-pyrazol-4-yl)-4-((3-fluoropyridin-2-yl)thio)pyrazolo[1,5-a]pyridine-3-carbonitrile] | 7 nM |
| Cc1c(-c2cc(Sc3ccc(F)cc3C#N)c3c(C#N)cnn3c2)cnn1[C@H]1CCCN(S(C)(=O)=O)C1 [Example 402, (S)-4-((2-cyano-4-fluorophenyl)thio)-6-(5-methyl-1-(1-(methylsulfonyl)piperidin-3-yl)-1H-pyrazol-4-yl)pyrazolo[1,5-a]pyridine-3-carbonitrile] | 2 nM |
| Cc1c(-c2cc(Sc3ccc(F)cc3C#N)c3c(C#N)cnn3c2)cnn1C1CCN(S(C)(=O)=O)CC1 [Example 403, 4-((2-cyano-4-fluorophenyl)thio)-6-(5-methyl-1-(1-(methylsulfonyl)piperidin-4-yl)-1H-pyrazol-4-yl)pyrazolo[1,5-a]pyridine-3-carbonitrile] | 2 nM |
| N#Cc1cnn2cc(-c3cn([C@H]4CCCNC4)nn3)cc(Sc3ncccc3F)c12 [Example 404, (S)-4-((3-fluoropyridin-2-yl)thio)-6-(1-(piperidin-3-yl)-1H-1,2,3-triazol-4-yl)pyrazolo[1,5-a]pyridine-3-carbonitrile] | 15 nM |
| N#Cc1cc(F)ccc1Sc1cc(-c2ccc(N3CCOCC3)nc2)cn2ncc(C#N)c12 [Example 405, 4-((2-cyano-4-fluorophenyl)thio)-6-(6-morpholinopyridin-3-yl)pyrazolo[1,5-a]pyridine-3-carbonitrile] | 2 nM |
| Cc1c(-c2cc(Sc3ccccc3C#N)c3c(C#N)cnn3c2)cnn1C1CCN(C(=O)N(C)C)CC1 [Example 406, 4-(4-(3-cyano-4-((2-cyanophenyl)thio)pyrazolo [1,5-a]pyridin-6-yl)-5-methyl-1H-pyrazol-1-yl)-N,N-dimethylpiperidine-1-carboxamide] | 1 nM |
| CN(c1ccc(-c2cc(Sc3ccccc3C#N)c3c(C#N)cnn3c2)cn1)C1CCCNC1 (stereo not drawn) [Example 407, 4-(2-cyanophenyl)sulfanyl-6-[6-[methyl(3-piperidyl)amino]-3-pyridyl]pyrazolo[1,5-a]pyridine-3-carbonitrile] | 0.2 nM |
| CC(=O)N1CCC(n2ncc(-c3cc(Sc4nc(C)c(Cl)cc4F)c4c(C#N)cnn4c3)c2C)CC1 [Example 408, 6-(1-(1-acetylpiperidin-4-yl)-5-methyl-1H-pyrazol-4-yl)-4-((5-chloro-3-fluoro-6-methylpyridin-2-yl)thio)pyrazolo[1,5-a]pyridine-3-carbonitrile] | 2 nM |
| CC(=O)N1[C@@H]2CC[C@H]1C[C@H](n1cc(-c3cc(Sc4ccccc4C#N)c4c(C#N)cnn4c3)c(C)n1)C2 [Example 409, 6-(1-((1R,3s,5S)-8-acetyl-8-azabicyclo[3.2.1]octan-3-yl)-3-methyl-1H-pyrazol-4-yl)-4-((2-cyanophenyl)thio)pyrazolo [1,5-a]pyridine-3-carbonitrile] | 5 nM |
| CC(=O)N1[C@@H]2CC[C@H]1C[C@H](n1cc(-c3cc(Sc4ccc(F)cc4C#N)c4c(C#N)cnn4c3)c(C)n1)C2 [Example 410, 6-(1-((1R,3s,5S)-8-acetyl-8-azabicyclo[3.2.1]octan-3-yl)-3-methyl-1H-pyrazol-4-yl)-4-((2-cyano-4-fluorophenyl)thio)pyrazolo [1,5-a]pyridine-3-carbonitrile] | 26 nM |
| CC(=O)N1CC[C@H](n2ncc(-c3cc(Sc4ccc(F)cc4C#N)c4c(C#N)cnn4c3)c2C)C[C@@H]1C [Example 411, 6-(1-((2S,4S)-1-acetyl-2-methylpiperidin-4-yl)-5-methyl-1H-pyrazol-4-yl)-4-((2-cyano-4-fluorophenyl)thio)pyrazolo [1,5-a]pyridine-3-carbonitrile] | 2 nM |
| CC(=O)N1CC[C@@H](n2cc(-c3cc(Sc4ccc(F)cc4C#N)c4c(C#N)cnn4c3)cn2)C[C@H]1C [Example 412, 6-(1-((2R,4R)-1-acetyl-2-methylpiperidin-4-yl)-1H-pyrazol-4-yl)-4-((2-cyano-4-fluorophenyl)thio)pyrazolo [1,5-a]pyridine-3-carbonitrile] | 1 nM |
| Cc1nn([C@H]2CCCNC2)cc1-c1cc(Sc2ccccc2C#N)c2c(C#N)cnn2c1 [Example 413, (S)-4-((2-cyanophenyl)thio)-6-(3-methyl-1-(piperidin-3-yl)-1H-pyrazol-4-yl)pyrazolo[1,5-a]pyridine-3-carbonitrile] | 3 nM |
| Cc1nn([C@H]2CCCNC2)cc1-c1cc(Sc2ccc(F)cc2C#N)c2c(C#N)cnn2c1 [Example 414, (S)-4-((2-cyano-4-fluorophenyl)thio)-6-(3-methyl-1-(piperidin-3-yl)-1H-pyrazol-4-yl)pyrazolo[1,5-a]pyridine-3-carbonitrile] | 7 nM |
| Cc1nn([C@H]2CCCNC2)cc1-c1cc(Sc2ncccc2F)c2c(C#N)cnn2c1 [Example 415, (S)-4-((3-fluoropyridin-2-yl)thio)-6-(3-methyl-1-(piperidin-3-yl)-1H-pyrazol-4-yl)pyrazolo[1,5-a]pyridine-3-carbonitrile] | 7 nM |
| Cc1nn([C@H]2CCCN(C(=O)CO)C2)cc1-c1cc(Sc2ncccc2F)c2c(C#N)cnn2c1 [Example 420, (S)-4-((3-fluoropyridin-2-yl)thio)-6-(1-(1-(2-hydroxyacetyl)piperidin-3-yl)-3-methyl-1H-pyrazol-4-yl)pyrazolo[1,5-a]pyridine-3-carbonitrile] | 4 nM |
| N#Cc1cnn2cc(-c3cnn([C@H]4CCNC4)c3)cc(Sc3ncccc3F)c12 [Example 421, (S)-4-((3-fluorop;yridin-2-yl)thio)-6-(1-(pyrrolidin-3-yl)-1H-pyrazol-4-yl)pyrazolo[1,5-a]pyridine-3-carbonitrile] | 5 nM |
| CC(=O)N1CCC(n2ncc(-c3cc(Sc4ncccc4F)c4c(C#N)cnn4c3)c2CO)CC1 [Example 423, 6-(1-(1-acetylpiperidin-4-yl)-5-(hydroxymethyl)-1H-pyrazol-4-yl)-4-((3-fluoropyridin-2-yl)thio)pyrazolo[1,5-a]pyridine-3-carbonitrile] | 259 nM |
| COCc1c(-c2cc(Sc3ccccc3C#N)c3c(C#N)cnn3c2)cnn1C1CCN(C)CC1 [Example 424, 4-((2-cyanophenyl)thio)-6-(5-(methoxymethyl)-1-(1-methylpiperidin-4-yl)-1H-pyrazol-4-yl)pyrazolo[1,5-a]pyridine-3-carbonitrile] | 46 nM |
| CC(=O)N1CCC[C@H](n2cc(-c3cc(Sc4ccc(F)cc4C#N)c4c(C#N)cnn4c3)c(C)n2)C1 [Example 425, (S)-6-(1-(1-acetylpiperidin-3-yl)-3-methyl-1H-pyrazol-4-yl)-4-((2-cyano-4-fluorophenyl)thio)pyrazolo [1,5-a]pyridine-3-carbonitrile] | 6 nM |
| Cc1nn([C@H]2CCCN(C(=O)CO)C2)cc1-c1cc(Sc2ccc(F)cc2C#N)c2c(C#N)cnn2c1 [Example 426, (S)-4-((2-cyano-4-fluorophenyl)thio)-6-(1-(1-(2-hydroxyacetyl)piperidin-3-yl)-3-methyl-1H-pyrazol-4-yl)pyrazolo[1,5-a]pyridine-3-carbonitrile] | 4 nM |
| N#Cc1ccccc1Sc1cc(-c2cnn([C@H]3CCNC3)c2)cn2ncc(C#N)c12 [Example 427, (S)-4-((2-cyanophenyl)thio)-6-(1-(pyrrolidin-3-yl)-1H-pyrazol-4-yl)pyrazolo[1,5-a]pyridine-3-carbonitrile] | 0.4 nM |
| CC(=O)N1CCC(n2cc(-c3cc(Sc4ncccc4F)c4c(C#N)cnn4c3)cn2)CC1 [Example 428, 6-(1-(1-acetylpiperidin-4-yl)-1H-pyrazol-4-yl)-4-((3-fluoropyridin-2-yl)thio)pyrazolo[1,5-a]pyridine-3-carbonitrile] | 1 nM |
| CC(=O)N1CCC(n2cc(-c3cc(Sc4ccc(F)cc4C#N)c4c(C#N)cnn4c3)cn2)CC1 [Example 429, 6-(1-(1-acetylpiperidin-4-yl)-1H-pyrazol-4-yl)-4-((2-cyano-4-fluorophenyl)thio)pyrazolo [1,5-a]pyridine-3-carbonitrile] | 1 nM |
| CN1CCC(n2cc(-c3cc(Sc4ncccc4F)c4c(C#N)cnn4c3)nn2)CC1 [Example 430, 4-((3-fluoropyridin-2-yl)thio)-6-(1-(1-methylpiperidin-4-yl)-1H-1,2,3-triazol-4-yl)pyrazolo[1,5-a]pyridine-3-carbonitrile] | 10 nM |
| CC(=O)N1CCC[C@H](n2ncc(-c3cc(Sc4nc(C)c(F)cc4F)c4c(C#N)cnn4c3)c2C)C1 [Example 431, (S)-6-(1-(1-acetylpiperidin-3-yl)-5-methyl-1H-pyrazol-4-yl)-4-((3,5-difluoro-6-methylpyridin-2-yl)thio)pyrazolo[1,5-a]pyridine-3-carbonitrile] | 2 nM |
| CC(=O)N1CCC(n2cc(-c3cc(Sc4ccc(F)cc4C#N)c4c(C#N)cnn4c3)c(C)n2)CC1 [Example 432, 6-(1-(1-acetylpiperidin-4-yl)-3-methyl-1H-pyrazol-4-yl)-4-((2-cyano-4-fluorophenyl)thio)pyrazolo [1,5-a]pyridine-3-carbonitrile] | 3 nM |
| Cc1c(-c2cc(Sc3ccc(F)cc3C#N)c3c(C#N)cnn3c2)cnn1[C@H]1CCCN(c2ncccn2)C1 [Example 433, (S)-4-((2-cyano-4-fluorophenyl)thio)-6-(5-methyl-1-(1-(pyrimidin-2-yl)piperidin-3-yl)-1H-pyrazol-4-yl)pyrazolo[1,5-a]pyridine-3-carbonitrile] | 5 nM |
